This note sets out measurements from patent US4886806A, “Flavone-3-carboxylic acids compounds and pharmaceutical compositions containing them” (Kali-Chemie Pharma GmbH, priority 1987, dated 1989).

Each structure is given as a SMILES string. Like-named read-outs stand apart in the source and are kept apart here.

Series [1] concerns oxygen radical-forming activity of activated peritoneal exudate cells (PEC) of mice. Description: Peak chemiluminescence (CL) test: inhibition of oxygen radical liberation from activated peritoneal exudate cells. The class given is cell-based. Conditions: 10^-4 Mol substance/l, added at peak of cell activity; for inhibition at 100 µM (stock): Mus musculus, read-out: Inhibition in vitro of the oxygen radical liberation, Chemiluminescence Test % inhibition, Pk. CL. Here is the method:
1. To determine the inhibiting effect on the oxygen radical-forming activity of inflamed cells, the in vitro inhibition of the release of oxygen radicals from activated peritoneal exudate cells (=PEC) of mice was determined in the chemiluminescence (CL) test according to the method of Mueller-Peddinghaus (Int. J. Immunopharmac. 6, 455-466 (1984)). […] The intensity of the chemiluminescence is a measurement of the oxygen radical content in the suspension and thus the degree of activity of the inflamed cells. In this, three functionally different parameters are detected, the spontaneous CL, the induced CL and the peak CL. The spontaneous CL and the induced CL on the one hand and the peak CL on the other hand differ from each other because in the first two parameters the test substances are in contact with the cells for a 30 minute preincubation period before the inflammation irritant is added, whereas with the peak CL the cells are first stimulated, and the test substance is added at the peak of their activity. The measurement of the spontaneous CL thus detects the influence of the test substance on the relative rest activity of inflamed cells, the induced CL represents the effect of the test substances on the activatability of the cells and the inhibition of the peak CL indicates the effect of the test substances on the maximum activity of the inflamed cells. 1.1 Production of PEC suspension used in the test. In order to induce the PEC formation, female mice of 20-25 g body weight were each injected i.p. with 2 ml of a 3% solution of thioglycollate in sterile isotonic sodium chloride solution. Twenty four hours after the thioglycollate injection the cells, which predominantly consisted of polymorphonuclear leucocytes, were recovered by washing out of the abdominal cavity and washed twice. As cell culture medium there was added a commercially available solution under the designation RPMI 1640 (pH 7.2) (produced by Flow Laboratories, […], Germany), which contains 10% fetal calf serum (FCS, produced by Seromed GmbH, Munich, Germany) 18 μmol/l sodium bicarbonate and 2 μmol/l L-glutamine. The cell pellets of four animals each time were resuspended in cell culture medium, collected together and the suspension was made up to 2×10^6 cells per ml with cell culture medium. The cell suspensions were kept under ice cooling until their use the same day. 1.2 Production of the complement opsonized zymosan (=ZyC3 b) suspension used for activation. 200 mg zymosan (glycoprotein mixture isolated from the cell walls of brewer's yeast, Sacchomyces […], produced by Sigma Chemical Co., Munich, Germany) were suspended in 10 ml phosphate buffer solution according to Dulbecco (produced by Flow Laboratories, […], Germany), well stirred and heated for thirty minutes in a water bath to 100° C. After cooling, it was centrifuged for five minutes at 4° C. and at 600 ×g and the supernatant was discarded. The sediment was resuspended in 50 ml human serum and incubated for thirty minutes at 37° C. in a shaking water bath. Then it was centrifuged for five minutes at 600 ×g and 420 C., the supernatant decanted and the sediment washed with phosphate buffer solution. The working suspension of 8×10^-3 g ZyC3 b/ml was produced from the sediment by dilution with phosphate buffer solution (Mueller-Peddinghaus et al., Zbl. Vet. Med. B. 30, 559-575). 1.3 Chemiluminescence (CL) measurement (Peak-CL). The PEC suspension was divided into samples of 100 μl each, placed in test tubes, and these were incubated for ten minutes at a temperature of 3720 C. in a measurement device (Chemiluminescence analyzer, Laboratorium Prof. Berthold, Wildbad, Germany). Then in order to amplify the chemiluminescence, 100 μl lucigenin solution was added (final concentration 1.54×10^-4 mol/l) and incubated for 16 more minutes. The cells were then activated by the addition of 100 μl of the ZyC3 b suspension produced as described in section 1.2 plus 100 μl phosphate buffer solution. […]

Another series deals with Lipoxygenase. Nature of the series: LTB4 synthesis and inhibition test (lipoxygenase inhibition in vitro) in polymorphonuclear leucocytes. Conditions: PMNL; for inhibition at 100 µM: Homo sapiens, read-out: Lipoxygenase inhib. in vitro, % inhibition of the LTB4 synthesis at 10^-4 Mol/l. The format is cell-based. Here is the method:
2. In order to investigate the lipoxygenase-inhibiting properties, the inhibiting effect of the substances on the biosynthesis of leucotriene B4 (=LTB4) from arachidonic acid by activated inflamed cells was determined in vitro. Leucotriene B4, a dihydroxy fatty acid which plays an important role not only in the inflammation but also in allergic reactions was oxidatively formed, starting from arachidonic acid, by oxidation through the action of the enzyme lipoxygenase.
LTB4 Synthesis and Inhibition Test.
The combined extracts were evaporated under vacuum to dryness and the residue was taken up in 0.5 ml 30% aqueous methanol and was analyzed with the aid of high pressure liquid chromatography with phase reversal (=reversed phase-HPLC). The stationary phase (=separating medium) consisted of silica gel containing octadecyl groups chemically bound thereto (=RSIL C18 HP; produced by Autech, Darfield, Ill.). The solvent mixture is methanol:water:acetic acid (67:33:0.1; v/v/v), which had been adjusted to a pH value of 6.2 with NH3 /H2 O. The flow velocity was 1 ml/min. […] The LTB4 signals were compared with those of the control (cell incubation with solvent) and reported as percent inhibition of LTB4 synthesis compared with the controls.

The next series has as its system male mice. Description: Determination of the minimum toxic dose. The format is in vivo. The conditions noted are these: max. dose 300 mg/kg, 24 h. Here is the method: 3. Determination of the minimum toxic dose.
Male mice of 20 to 25 g weight were given maximal doses of 300 mg/kg of test substance per os. The animals were carefully watched over a period of three hours for toxicity symptoms. Over a period of twenty-four hours after administration, all symptoms and deaths were recorded. Associated symptoms were also watched and recorded. If death or strongly toxic symptoms were noted, further mice were given increasingly lower doses. The lowest dose which brought about death or strongly toxic symptoms was reported as the minimum toxic dose.

Series [2] has as its system carrageenin foot edema in male Wistar rats. Nature of the series: Inhibition of carrageenin foot edema in rats (Winter et al.). Conditions: Rattus norvegicus, 2 h after irritant; for inhibition in vivo at 100 µmol/kg: 100 μmol/kg p.o. The class given is in vivo. Here is the method:
A similar volume of isotonic sodium chloride solution was injected in the left hind foot. The volume of the each rat's foot was measured plethysmometrically both before and two hours after administration of the irritant, and the swelling of the foot volume after the carrageenin application was compared to the foot which was treated only with sodium chloride solution The inhibition of edema formation by the test substances in the treated animals was compared in percentage terms with the animals of the untreated control group.

The mark [3] stands for this setting: 10^-4 Mol/l, Ca-ionophore A 23187, arachidonic acid.

With `COc1cc(-c2oc3ccccc3c(=O)c2C(=O)NCCCCN2CCN(c3ncccn3)CC2)cc(OC)c1OC` [Example 54], the inhibition at 100 µM (stock) in series [1] was found to be 72%. Also, in the series on Lipoxygenase (setting [3]), the inhibition at 100 µM came to 44%. Also, the “Minimal toxic dose mg/kg mouse p.o.” value in the series on male mice is listed as more than 300 mg/kg. The inhibition in vivo (in general, the relative decrease from the control value, in per cent) at 215 µmol/kg in series [2] (ip, 215 μmol/kg i.p.) came out at 40%.
With `CCN(CC)CCCOC(=O)c1c(-c2ccccc2)oc2ccccc2c1=O.Cl` [Example 3b, 3-[3-(diethylamino)propoxycarbonyl]flavone hydrochloride], the inhibition at 100 µM (stock) in series [1] amounted to 61%. In addition, the inhibition at 100 µM with Lipoxygenase (setting [3]) was found to be 8%. Besides, in the series on male mice, the “Minimal toxic dose mg/kg mouse p.o.” value was determined as 300 mg/kg.
As for `COc1cc(-c2oc3ccccc3c(=O)c2C(=O)N2CCN(c3ccccn3)CC2)cc(OC)c1OC` [Example 7b, 3',4',5'-trimethoxy-3-{[4-(2-pyridyl)-piperazin-1-yl]-carbonyl}flavone], the “Inhibition in vitro of the oxygen radical liberation, Chemiluminescence Test % inhibition, Pk. CL” value in series [1] was 44%. Further, the “Lipoxygenase inhib. in vitro, % inhibition of the LTB4 synthesis at 10^-4 Mol/l” value in the series with Lipoxygenase (setting [3]) worked out at 42%. Further, the “Minimal toxic dose mg/kg mouse p.o.” value in the series on male mice is on record as more than 300 mg/kg. In series [2] (po, 215 μmol/kg p.o.), the inhibition in vivo at 215 µmol/kg amounted to 40%.
`O=C(c1c(-c2cccc(O)c2)oc2ccccc2c1=O)N1CCN(Cc2ccccc2)CC1` [Example 30]: the inhibition at 100 µM (stock) in series [1] was 85%. Further, in the series with Lipoxygenase (setting [3]), the inhibition at 100 µM is 44%. Also, in the series with male mice, the “Minimal toxic dose mg/kg mouse p.o.” value is on record as more than 300 mg/kg.
As for `O.O=C(O)C(O)C(O)C(=O)O.O=C(c1c(-c2ccccc2)oc2ccccc2c1=O)N1CCN(Cc2ccccc2)CC1` [Example 2b, 3-[(4-benzyl-piperazin-1-yl)-carbonyl]flavone tartrate monohydrate], in series [1], the inhibition at 100 µM (stock) is 58%. In the series with Lipoxygenase, the inhibition at 100 µM turned out to be 92%. For the same compound, in the series with male mice, the “Minimal toxic dose mg/kg mouse p.o.” value is recorded as more than 300 mg/kg. In series [2] (po), this compound gave an inhibition in vivo at 100 µmol/kg of 25%.
In the case of `COc1cc(OC)c2c(=O)c(C(=O)N3CCN(c4ccccn4)CC3)c(-c3ccccc3)oc2c1` [Example 34], the inhibition at 100 µM (stock) in series [1] came out at 25%. Moreover, the inhibition at 100 µM in the series on Lipoxygenase (setting [3]) is 25%. The compound also gave an inhibition in vivo at 215 µmol/kg in series [2] (po, 215 μmol/kg p.o.) of 30%.
On to `CC(=O)Oc1cc(-c2oc3ccccc3c(=O)c2C(=O)N2CCN(c3ccccn3)CC2)cc(OC(C)=O)c1OC(C)=O` [Example 39b], for which the inhibition at 100 µM (stock) in series [1] stood at 99%. The inhibition at 100 µM with Lipoxygenase (setting [3]) was 93%. In series [2] (ip, 215 μmol/kg i.p.), this compound registered an inhibition in vivo at 215 µmol/kg of 62%.
Turning to `Cl.O=C(c1c(-c2ccccc2)oc2ccccc2c1=O)N1CCN(c2ccccn2)CC1` [Example 1c, 3-{[4-(2-Pyridyl)-piperazin-1-yl]-carbonyl}flavone hydrochloride], the inhibition at 100 µM (stock) in series [1] was found to be 47%. In addition, the inhibition at 100 µM with Lipoxygenase (setting [3]) worked out at 52%. Besides, the “Minimal toxic dose mg/kg mouse p.o.” value in the series with male mice is given as more than 300 mg/kg. In series [2] (ip, 215 μmol/kg i.p.), this compound returned an inhibition in vivo at 215 µmol/kg of 55%. Also, in series [2] (po), the inhibition in vivo at 100 µmol/kg came to 44%.
With `COc1cc(-c2oc3ccccc3c(=O)c2C(=O)N2CCN(c3ccccn3)CC2)cc(OC)c1OC` [Example 7a, 3',4',5'-trimethoxy-3-{[4-(2-pyridyl)-piperazin-1-yl]-carbonyl}flavone], the “Inhibition in vitro of the oxygen radical liberation, Chemiluminescence Test % inhibition, Pk. CL” value in series [1] amounted to 68%. Besides, in the series on Lipoxygenase (setting [3]), the inhibition at 100 µM came out at 38%. For the same compound, the “Minimal toxic dose mg/kg mouse p.o.” value in the series with male mice is more than 300 mg/kg.
As to `O.O.O=C(O)C(O)C(O)C(=O)O.O=C(c1c(-c2cc(O)c(O)c(O)c2)oc2ccccc2c1=O)N1CCN(Cc2ccccc2)CC1` [Example 14e, 3',4',5'-trihydroxy-3-[(4-benzylpiperazin-1-yl)carbonyl] -flavone tartrate dihydrate], in series [1], the inhibition at 100 µM (stock) stood at 99%. In the series on Lipoxygenase, the inhibition at 100 µM came out at 86%. Further, in the series with male mice, the “Minimal toxic dose mg/kg mouse p.o.” value is listed as more than 300 mg/kg. The compound also had an inhibition in vivo at 215 µmol/kg in series [2] (ip, 215 μmol/kg i.p.) of 33%.
On to `O=C(NCCCCN1CCN(c2ccccn2)CC1)c1c(-c2ccccc2)oc2ccccc2c1=O` [Example 4e, 3-{4-[4-(2-pyridyl)-piperazin-1-yl]-butylaminocarbonyl}flavone], for which the inhibition at 100 µM (stock) in series [1] is 76%. The inhibition at 100 µM with Lipoxygenase (setting [3]) turned out to be 10%. For the same compound, the “Minimal toxic dose mg/kg mouse p.o.” value in the series with male mice stood at 300 mg/kg. Moreover, the inhibition in vivo at 215 µmol/kg in series [2] (ip, 215 μmol/kg i.p.) turned out to be 54%; in series [2] (po, 215 μmol/kg p.o.), 50%.
Consider `COc1ccc(-c2oc3ccccc3c(=O)c2C(=O)N2CCN(c3ccccn3)CC2)cc1OC` [Example 32b], for which, in series [1], the inhibition at 100 µM (stock) is 56%. The inhibition at 100 µM with Lipoxygenase (setting [3]) is 25%. Besides, in the series with male mice, the “Minimal toxic dose mg/kg mouse p.o.” value is recorded as more than 300 mg/kg.
For `CN1CCN(CCCCNC(=O)c2c(-c3ccccc3)oc3ccccc3c2=O)CC1` [Example 24] the same measures were 1%, 46% and more than 300 mg/kg.
Turning to `O=C(NCCc1ccccn1)c1c(-c2cc(O)c(O)c(O)c2)oc2ccccc2c1=O` [Example 53], the inhibition at 100 µM (stock) in series [1] amounted to 77%. Moreover, in the series on Lipoxygenase (setting [3]), the inhibition at 100 µM worked out at 77%. The same compound registered an inhibition in vivo at 215 µmol/kg in series [2] (ip, 215 μmol/kg i.p.) of 50%.
